{"source": "patent US10544112B2", "about": "“Identification of ebsulfur analogues with broad-spectrum antifungal activity” (priority 2017, dated 2020)", "system": "Murine red blood cells (mRBCs)", "assay": "Hemolytic assay", "experimental": "Hemolytic activity was determined as previously described with minor modifications (FIG. 3). […] Compounds were serially diluted in Eppendorf tubes containing H2O (100 μL). […] The tubes were then incubated for 1 h at 37° C. Tubes containing dd H2O (200 μL) and triton X-100® (1% v/v, 2 μt) served as negative (blank) and positive (100%) control, respectively. The percent hemolysis was calculated using the following equation: % hemolysis=[(absorbance of sample)−(absorbance of blank)]×100/(absorbance of positive control). Fifty percent hemolysis (HC50) values were defined as the concentrations of compounds required to lyse 50% of the mRBCs.", "data": [{"smiles": "CCCCCn1sc2ccccc2c1=O", "note": "[Compound 3a]", "values": [{"measurement": "fold MIC lower than the hemolytic concentration", "setting": "Aspergillus strains", "value": "≥ 195", "unit": "fold"}, {"measurement": "fold MIC lower than the hemolytic concentration", "setting": "Candida strains", "value": "at least 5 fold"}, {"measurement": "hemolytic concentration", "setting": "mRBCs, 1 h at 37° C.", "value": "approximately 3.9 μg/mL"}]}]}
